Where a name gives a salt, the structure may show the parent alone.
| Compound | melting point [°C] |
| --- | --- |
| COc1ccc2nc(-c3ccc(CNCCCCN(C)C)cc3)nc(-c3ccc(CNCCCCN(C)C)cc3)c2c1 (as salt: (cooh)2) [Compound 3h, 6-Methoxy-2,4-bis{4-[(4-dimethylaminobutyl)aminomethyl]phenyl}quinazoline] | 156 to 158 |
| COc1ccc2cc(-c3ccc(CNCCCCN(C)C)cc3)nc(-c3ccc(CNCCCCN(C)C)cc3)c2c1 (as salt: (cooh)2) [Compound 2e, 7-Methoxy-1,3-bis{4-[(4-dimethylaminobutyl)aminomethyl]phenyl}isoquinoline] | 157 to 159 |
| COc1ccc2c(-c3ccc(CNCCCN4CCN(C)CC4)cc3)nc(-c3ccc(CNCCCN4CCN(C)CC4)cc3)nc2c1 (as salt: (cooh)2) [Compound 3q, 7-Methoxy-2,4-bis{4-[(3–(4-methylpiperazin-1-yl)propyl)aminomethyl]phenyl}quinazoline] | 229 to 231 |
| COc1ccc2c(-c3ccc(CNCCCCN(C)C)cc3)nc(-c3ccc(CNCCCCN(C)C)cc3)nc2c1 (as salt: (cooh)2) [Compound 3m, 7-Methoxy-2,4-bis{4-[(4-dimethylaminobutyl)aminomethyl]phenyl}quinazoline] | 216 to 218 |
| CN1CCN(CCCNCc2ccc(-c3nc(-c4ccc(CNCCCN5CCN(C)CC5)cc4)c4ccccc4n3)cc2)CC1 (as salt: (cooh)2) [Compound 3e, 2,4-Bis{4-[(3–(4-methylpiperazin-1-yl)propyl)aminomethyl]phenyl}quinazoline] | 229 to 231 |
| CN1CCN(CCCNCc2cccc(-c3nc(-c4cccc(CNCCCN5CCN(C)CC5)c4)c4ccccc4n3)c2)CC1 (as salt: (cooh)2) [Compound 3t, 2,4-Bis{3-[(3–(4-methylpiperazin-1-yl)propyl)aminomethyl]phenyl}quinazoline] | 252 to 254 |
| COc1ccc2nc(-c3ccc(CNCCCN(C)C)cc3)nc(-c3ccc(CNCCCN(C)C)cc3)c2c1 (as salt: (cooh)2) [Compound 3i, 6-Methoxy-2,4-bis{4-[(3-dimethylaminopropyl)aminomethyl]phenyl}quinazoline] | 243 to 245 |
| c1cc(CNCCN2CCOCC2)cc(-c2nc(-c3cccc(CNCCN4CCOCC4)c3)c3ccccc3n2)c1 (as salt: (cooh)2) [Compound 3v, 2,4-Bis{3-[(2-morpholinoethyl)aminomethyl]phenyl}quinazoline] | 234 to 236 |
| CN1CCN(CCCNCc2ccc(-c3cc4ccccc4c(-c4ccc(CNCCCN5CCN(C)CC5)cc4)n3)cc2)CC1 (as salt: (cooh)2) [Compound 2d, 1,3-Bis{4-[(3–(4-methylpiperazin-1-yl)propyl)aminomethyl]phenyl}isoquinoline] | 217 to 219 |
| CN(C)CCCNCc1ccc(-c2cc3ccccc3c(-c3ccc(CNCCCN(C)C)cc3)n2)cc1 (as salt: (cooh)2) [Compound 2b, 1,3-Bis{4-[(3-dimethylaminopropyl)aminomethyl]phenyl}isoquinoline] | 186 to 188 |
| CN(C)CCCNCc1cccc(-c2cc(-c3cccc(CNCCCN(C)C)c3)c3ccccc3n2)c1 (as salt: (cooh)2) [Compound 1q, 2,4-Bis{3-[(3-dimethylaminopropyl)aminomethyl]phenyl}quinoline] | 243 to 245 |
| CN(C)CCCNCc1cccc(-c2nc(-c3cccc(CNCCCN(C)C)c3)c3ccccc3n2)c1 (as salt: (cooh)2) [Compound 3s, 2,4-Bis{3-[(3-dimethylaminopropyl)aminomethyl]phenyl}quinazoline] | > 260 |
| COc1ccc2c(-c3ccc(CNCCCCN(C)C)cc3)nc(-c3ccc(CNCCCCN(C)C)cc3)cc2c1 (as salt: (cooh)2) [Compound 2i, 6-Methoxy-1,3-bis{4-[(4-dimethylaminobutyl)aminomethyl]phenyl}isoquinoline] | 135 to 137 |
